What all share (assay type): in vivo, pig
For experiment [1], the system named is slaughter pigs. Put plainly: Storage loss of pork chops after display period. The note with it: 7 days at 2° C., 1.1% total methionine for 7 days before slaughter, LS mean ± SEM. From the text: (§1) Twenty-one slaughter pigs ([Yorkshire×Swedish Landrace]×Hampshire) were raised on a commercial diet. Pigs were randomly assigned to one of three groups (n=7). The groups represented three feeding strategies, namely a Control group which received a standardized diet comprising 0.27% total methionine, and both a DLM and HMTBA group, receiving the same diet as the Control group throughout the feeding period, apart from the fact that they were fed a higher level of methionine (1.1% total methionine) during a seven day finishing period immediately prior to slaughter. The supplements were given in two forms, either as D L-methionine (DLM) or DL-2-hydroxy-4-methylthiobutanoic acid (HMTBA).
Pigs were slaughtered at a commercial slaughter house in Sweden after a resting time of 5 hours. At 45 minutes post mortem, pH (Knick portamess 751 pH-meter with an Ingold LOT glass electrode, Tech Instrumentering ApS, Denmark) and temperature (digital thermometer, Weber, Stephen Nordic, Denmark) were measured in the m. Longissimus dorsi (LD) at the level of the 10th rib. At 48 hours post mortem, the entire back was dissected from the carcass and transported under controlled conditions to the University of Copenhagen for further measurements.
(§2) Pork chops were cut perpendicular to the long axis of each LD muscle. Six 3 cm thick pork chops was sliced from each LD. Three were vacuum packed and three were packed in a high-oxygen modified atmosphere. The chops were placed in plastic trays (M71-43A white/PS; 195×144×43 mm in dimension; Frch Plast, Denmark) and placed in vacuum bags (EM-628862; O2 transmission rate=40-50 cm^3/m^2/24 h/bar, CO2 transmission rate=150 cm^3/m^2/24 h/bar, water-vapour transmission rate=2.6 g/m^2/24 h; LogiCon Nordic A/S, Denmark). The ambient air was removed from all vacuum bags using a vacuum machine (type, manufacturer, country). The bags intended for […] were first filled with a gas mixture (80% oxygen/20% carbon dioxide) before being sealed completely, whereas the bags intended for MAP were only partially sealed. […] (until 9 days post mortem). The gas composition was checked (CheckMate 9900, PBI Dansensor, Denmark) before packaging and again prior to opening, at the end of the simulated display period in order to check for leakage. The oxygen-enriched environment was well maintained (83.4%) throughout the display period for all MA packages.
Storage loss was determined as the weight loss percentage at the end of the display period (9 days post mortem) relative to the weight at the day of packaging (two days post mortem). The cooking loss was determined as the weight loss percentage between the pork chops before and after cooking. The results are given as the mean of the three pork chops in each meat pack.

Experiment [2] deals with slaughter pigs. Put plainly: Instrumental meat colour (CIE L*a*b*), Example 1. Particulars: LS mean ± SEM.
Source text: as §1, §2
Instrumental meat colour was measured with a Minolta Chroma Meter (CR-300; D65 and 2° observer angle, 8 mm diameter measuring area; Minolta, Japan). Before packaging, as described previously, colour recordings of the pork chops was carried out. At the end of the display period, the pork chops were allowed to bloom for at least 30 min at 4±2° C. once they had been removed from the vacuum bags. Colour measurements followed the CIE colour convention, where the three fundamental outputs are L*, a* and b*. L* is lightness on a scale of 0 (all light absorbed; black) to 100 (all light reflected; white); a* spans from +60 (red) to −60 (green) and b* spans from +60 (yellow) to −60 (blue). The saturation index, also known as chroma, was calculated as the square root of a*^2+b*^2 (MacDougall, 1977). Three recordings were made on each pork chop, and the mean value was used for statistical analysis.

Experiment [3] deals with L. dorsi muscle of the pigs. Put plainly: sEMG peak-to-peak amplitude of L. dorsi muscle. The note with it: 1 weeks dietary supplementation. From the text:
This study used both a single and a double differential electrode configuration, with electrodes ([…] & […]; Blue Sensor, Medicotest […], Denmark) configured as described previously by Harrison et al. (Harrison, […]. Molsted, & E. M. Bartels. The uremic environment and muscle dysfunction in man and rat. Nephron. Vol 103: 33-42, 2006). Surface electromyography recordings were taken via an ML 132 amplifier connected to a ML780 PowerLab/[…] converter (AD Instruments, Chalgrove, Oxfordshire, UK) with a further connection to a MacBook Air with Chart v. 3.6.3/s Software, Peak Parameters and Spike Histogram extensions. […] Sampling speed was set to 40,000 per second. Differential recordings of sEMG signals were made via surface electrodes from the L. dorsi muscle as previously described by Andersen et al. (2008, Andersen […], Guy J H, Edwards S A & Harrison A P, Postnatal changes in electromyographic signals during piglet growth, and in relation to muscle fibre types. […] In brief, a bipolar differential electrode configuration, with disposable Ag-AgCl recording electromyography electrodes was attached to the exposed skin surface above the L. dorsi muscle, with a set inter-electrode distance of 16-19 mm (Andersen et al., 2008). […] The recorded sEMG signal was assessed in terms of peak-to-peak amplitude (mV) using Chart analysis software (AD Instruments, Chalgrove, Oxfordshire, UK).

The test system of experiment [4] is pigs. Put plainly: Post mortem pH and temperature in M. longissimus dorsi, Example 2. On the procedure: (§3) The pigs were slaughtered at a commercial slaughter house in Sweden after a resting time of 5 h. At 45 minutes post mortem, pH (Knick portamess 751) and temperature (digital thermometer, Weber) were measured in the M. longissiumus dorsi at the level of the 10th rib. At 48 h post mortem, the entire loins were dissected from the carcasses and transported to the University of Copenhagen for further measurements. Ultimate pH was measured, as well as colour by Minolta L*a*b*. Dry matter content was determined by drying muscle samples at 105° C. for 24 h. Slices of 3 cm thickness were cut, measured and vacuum packed before being stored for a further 7 days at 2° C. At the end of the storage period samples were heated to an internal temperature of 75° C. After being cooled down, samples were stored cold at 2° C. until they were cut into slabs of 1 cm×1 cm×2.5 cm size for shear force measurement. For each animal, 8 specimens were measured and the mean maximum load was used for further analysis.

Experiment [5] has as its system pigs. Put plainly: Dry matter content of muscle samples, Example 2. Particulars: Laboratory, 2 days post mortem. As to the method:
as §3

The mark [6] stands for this setting: Initial (2 days post mortem), square root of a*^2+b*^2.
[7] abbreviates: MAP 80% O2/20% CO2 (9 days post mortem).
Where [8] appears, read: Slaughter house, 45 min post mortem.

Take `CSCCC(N)C(=O)O` (racemic) [DLM, DL-methionine]: the Storage loss in the experiment on slaughter pigs [1] (MAP (80% O2 + 20% CO2)) is listed as 9.34 ± 0.83 ^A g. The Storage loss in the experiment with slaughter pigs [1] (Vacuum) is given as 4.56 ± 0.89 ^B g. Further, in the experiment on slaughter pigs [2] (Initial (2 days post mortem)), the “Light reflection (L*)” value is 55.75 ± 1.25 ^B; the “Redness (a*)” value was 6.69 ± 0.58 ^C, D; the “Yellowness (b*)” value is recorded as 2.92 ± 0.46 ^C. Further, in the experiment with slaughter pigs [2] (setting [6]), the Saturation index is 7.33 ± 0.67 ^E. In addition, in the experiment on slaughter pigs [2] (setting [7]), the “Redness (a*)” value is on record as 7.83 ± 0.59 ^A, B, C, D; the Saturation index is reported as 10.55 ± 0.69 ^A, B, C, D; the “Yellowness (b*)” value is given as 7.10 ± 0.49 ^A, B. Moreover, in experiment [3] (60, 150, 200 Hz), the “Change in sEMG peak-to-peak amplitude between pre and post groups” value is given as “clear improvement”. Moreover, the pH in the experiment on pigs [4] (Laboratory, 2 days post mortem) is on record as 5.50. Moreover, in the experiment with pigs [4] (setting [8]), the Temperature is 39 °C and the pH is recorded as 6.10. For the same molecule, the “Dry Matter” value in the experiment on pigs [5] came to 26%.

For the molecule `CSCCC(O)C(=O)O` (racemic) [HMTBA, 2-hydroxy-4-(methylthio) butanoic acid], in the experiment with slaughter pigs [1] (MAP (80% O2 + 20% CO2)), the Storage loss was 6.37 ± 0.83 ^A, B g. The Storage loss in the experiment with slaughter pigs [1] (Vacuum) is given as 4.63 ± 0.83 ^B g. For the same molecule, in the experiment with slaughter pigs [2] (Initial (2 days post mortem)), the “Light reflection (L*)” value was 56.89 ± 1.25 ^A, B; the “Redness (a*)” value was 7.58 ± 0.58 ^B, D; the “Yellowness (b*)” value is 3.71 ± 0.46 ^C. The Saturation index in the experiment on slaughter pigs [2] (setting [6]) was 8.46 ± 0.67 ^C, D, E. Besides, in the experiment with slaughter pigs [2] (setting [7]), the “Redness (a*)” value is 7.43 ± 0.59 ^B, D; the Saturation index is reported as 9.81 ± 0.69 ^B, C, D, E; the “Yellowness (b*)” value is given as 6.35 ± 0.49 ^B. Also, in experiment [3], the “Improvement in muscle growth/performance (sEMG peak-to-peak amplitude) cf CONT (untreated) levels” value was roughly 100%. In addition, the pH in the experiment with pigs [4] (Laboratory, 2 days post mortem) was determined as 5.40. In the experiment with pigs [4] (setting [8]), this molecule returned a Temperature of 39 °C and a pH of 6.20. In addition, the “Dry Matter” value in the experiment on pigs [5] is 29%.

The values are drawn from US20140314904A1, “PRE-SLAUGHTER DIET INCLUDING METHIONINE” (ADISSEO FRANCE S.A.S., priority 2011, published 2014).
